Measurements published in publication PMC2827632 (Biochemistry, 2010).
Where a chain is given by its changes, count along the chain named. Where two headings read alike, the source gives them in different places.

Experiments:
[1] = molecular target: T1, Mtb Lpd (Mycobacterium tuberculosis, UniProt P9WHH9)
T1 sequence (P9WHH9 1-464): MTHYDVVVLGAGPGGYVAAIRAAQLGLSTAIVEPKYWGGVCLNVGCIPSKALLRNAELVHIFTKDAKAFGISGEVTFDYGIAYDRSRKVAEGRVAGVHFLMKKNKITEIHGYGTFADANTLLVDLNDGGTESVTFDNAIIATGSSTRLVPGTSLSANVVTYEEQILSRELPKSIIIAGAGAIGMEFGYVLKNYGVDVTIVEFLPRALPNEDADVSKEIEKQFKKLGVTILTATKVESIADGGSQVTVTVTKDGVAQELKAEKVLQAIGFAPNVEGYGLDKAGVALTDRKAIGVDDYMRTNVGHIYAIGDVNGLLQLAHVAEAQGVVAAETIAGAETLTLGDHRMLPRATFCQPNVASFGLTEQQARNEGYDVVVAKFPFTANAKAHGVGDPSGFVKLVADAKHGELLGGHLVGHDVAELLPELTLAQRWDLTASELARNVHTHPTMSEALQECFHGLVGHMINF

[2] = molecular target: T2, human Lpd (Homo sapiens, UniProt P09622); test: Human Lpd dihydrolipoamide-NAD+ spectrophotometric assay; type: biochemical; conditions: dihydrolipoamide and NAD+ as substrates, up to 100 μM
T2 sequence (P09622 36-509): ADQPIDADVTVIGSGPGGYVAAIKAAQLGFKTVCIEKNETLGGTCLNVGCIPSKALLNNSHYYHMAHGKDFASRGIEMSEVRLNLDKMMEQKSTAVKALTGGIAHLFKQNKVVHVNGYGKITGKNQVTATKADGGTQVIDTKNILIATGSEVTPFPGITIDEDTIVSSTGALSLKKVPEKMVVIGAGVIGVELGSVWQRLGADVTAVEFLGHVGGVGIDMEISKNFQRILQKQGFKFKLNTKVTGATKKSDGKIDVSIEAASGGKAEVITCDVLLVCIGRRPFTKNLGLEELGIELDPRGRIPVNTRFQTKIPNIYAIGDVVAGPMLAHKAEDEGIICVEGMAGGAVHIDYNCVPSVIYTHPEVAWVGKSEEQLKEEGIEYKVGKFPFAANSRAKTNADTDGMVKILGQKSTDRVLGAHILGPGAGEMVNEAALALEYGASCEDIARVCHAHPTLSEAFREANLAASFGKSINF

[3] = molecular target: T1, Mtb Lpd; remark: listed apart in the source
[4] = molecular target: T3, Mtb PDHC (Mycobacterium tuberculosis, UniProt P9WHH9); conditions: read-out: IC50 Mtb PDHC; PDHC assay
T3 sequence (P9WHH9 1-464): T1 sequence (P9WHH9 1-464)

[5] = molecular target: T4, PDHC activity in Mtb lysates (Mycobacterium tuberculosis, UniProt P9WHH9); type: biochemical
T4 sequence (P9WHH9 1-464): T1 sequence (P9WHH9 1-464)

[6] = molecular target: T5, porcine PDHC (Sus scrofa, UniProt P09623); test: Porcine PDHC assay; type: biochemical
T5 sequence (P09623 36-509): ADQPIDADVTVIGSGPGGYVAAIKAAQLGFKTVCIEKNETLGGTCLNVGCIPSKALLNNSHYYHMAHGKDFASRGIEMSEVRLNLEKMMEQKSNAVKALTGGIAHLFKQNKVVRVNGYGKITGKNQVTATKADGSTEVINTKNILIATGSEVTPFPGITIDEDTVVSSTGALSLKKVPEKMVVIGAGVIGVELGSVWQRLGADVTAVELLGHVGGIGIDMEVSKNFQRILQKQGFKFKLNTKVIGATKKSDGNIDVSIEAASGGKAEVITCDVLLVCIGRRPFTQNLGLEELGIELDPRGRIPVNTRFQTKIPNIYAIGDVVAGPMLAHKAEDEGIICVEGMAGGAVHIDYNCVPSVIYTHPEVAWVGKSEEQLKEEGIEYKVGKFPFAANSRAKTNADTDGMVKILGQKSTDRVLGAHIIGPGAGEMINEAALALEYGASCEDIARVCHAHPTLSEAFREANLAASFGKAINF

[7] = molecular target: T2, human Lpd; test: Human Lpd DTNB assay; type: biochemical; conditions: for Inhibition of human Lpd (words): concentrations up to 100 μM
[8] = molecular target: T6, bovine thioredoxin reductase (Bos taurus, UniProt O62768); test: Bovine thioredoxin reductase DTNB assay; type: biochemical; conditions: for IC50: DTNB assay, 100 μM NADPH
T6 sequence (O62768 1-499): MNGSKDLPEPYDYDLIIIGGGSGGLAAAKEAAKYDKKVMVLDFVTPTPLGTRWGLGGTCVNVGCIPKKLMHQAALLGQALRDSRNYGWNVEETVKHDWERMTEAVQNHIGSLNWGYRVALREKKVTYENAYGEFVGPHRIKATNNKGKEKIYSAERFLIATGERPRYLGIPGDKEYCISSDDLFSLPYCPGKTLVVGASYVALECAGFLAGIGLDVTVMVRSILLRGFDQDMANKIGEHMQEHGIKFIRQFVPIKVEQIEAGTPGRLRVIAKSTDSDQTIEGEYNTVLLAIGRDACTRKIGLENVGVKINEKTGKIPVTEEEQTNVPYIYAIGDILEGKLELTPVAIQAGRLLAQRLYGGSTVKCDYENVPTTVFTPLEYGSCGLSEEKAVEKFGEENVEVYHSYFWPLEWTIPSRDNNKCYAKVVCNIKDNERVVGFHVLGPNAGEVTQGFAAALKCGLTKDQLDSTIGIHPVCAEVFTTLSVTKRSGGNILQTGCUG

[9] = tested on: mouse bone marrow macrophages; test: cells; type: cell-based; conditions: for EC50: read-out: BMM EC50 (concentration at which viability is reduced to 50%)
[10] = molecular target: T7, bovine Lpd (Bos taurus, UniProt F1N206); test: Bovine Lpd DTNB assay; type: biochemical
T7 sequence (F1N206 36-509): T2 sequence (P09622 36-509) with I35V, Y62F, M65L, D86E, T94N, G135S, M181L, K285Q, P298T

[11] = molecular target: T1, Mtb Lpd; remark: listed apart in the source
[12] = molecular target: the molecule itself; test: crystal structure

## COc1ccc(C(=O)N2CCC3(CC2)C(=O)N(CC(=O)NCc2cccc(C(F)(F)F)c2)CN3c2ccccc2)c(OC)c1 [compound 4, 2-(8-(2,4-dimethoxybenzoyl)-4-oxo-1-phenyl-1,3,8-triazaspiro[4.5]decan-3-yl)-N-(3-(trifluoromethyl)benzyl) acetamide]
[1]; read-out: IC50 Mtb Lpd + BSA, DTNB assay with 100 μg/ml bovine serum albumin
  IC50: 2.1 µM
[1]; read-out: IC50 Mtb Lpd, DTNB assay
  IC50: 2 µM
[2]
  Inhibition of human Lpd, physiological direction: No inhibition
[3]; read-out: IC50 Mtb Lpd NADH-lipoamide, NADH-lipoamide assay
  IC50: 2 µM
[4]
  IC50: 7.2 µM
[5]
  IC50 for Lpd activity in Mtb extracts measured by inhibition of PDHC activity: low micromolar range
[6]; read-out: IC50 pPDHC, PDHC assay
  IC50: 100 µM
[7]
  Inhibition of human Lpd (words): did not inhibit
[7]; read-out: IC50 hLpd, DTNB assay
  IC50: > 100 µM
[8]; read-out: IC50 bTR
  IC50: > 100 µM
[9]
  EC50: > 100 µM
[10]; read-out: IC50 bLpd, DTNB assay
  IC50: > 100 µM
[11]
  Inhibition of Mtb Lpd in dihydrolipoamide-NAD+ assay: inhibited

## COc1ccc(C(=O)N2CCC3(CC2)C(=O)N(CC(=O)NCCc2ccc(Cl)cc2Cl)CN3c2ccccc2)c(OC)c1 [compound 5, N-(2,4-dichlorophenethyl)-2-(8-(2,4-dimethoxybenzoyl)-4-oxo-1-phenyl-1,3,8-triazaspiro[4.5]decan-3-yl)acetamide]
[2]
  Inhibition of human Lpd, physiological direction: No inhibition
[3]; variable NADH 3.33 to 100 μM
  Mode of inhibition with respect to NADH: noncompetitive
[3]; variable lipoamide
  Mode of inhibition with respect to lipoamide: noncompetitive
[6]
  IC50: 100 µM
[6]; Fig. 2C
  Inhibition of porcine PDHC: minimally inhibits
[7]
  IC50: > 100 µM
  Inhibition of human Lpd (words): did not produce any measurable inhibition
[7]; listed as Compound 5
  Inhibition of human Lpd (words): no inhibition
[8]; Fig. 2C
  Inhibition of bovine thioredoxin reductase: minimally inhibits
[8]; IC50 bTR
  IC50: 20 µM
[9]; 100 μM (limit of solubility)
  Mouse bone marrow macrophage survival: 80%
[9]; Fig. 2C
  Toxicity against primary mouse bone marrow macrophages: no toxicity
[9]; Mus musculus, Bone marrow macrophage, 24 h
  EC50: > 100 µM
[10]
  IC50: 100 µM
[10]; Fig. 2C
  Inhibition of bovine Lpd: minimally inhibits
[11]
  Inhibition of Mtb Lpd in dihydrolipoamide-NAD+ assay: inhibited
[11]; variable NAD+ 25 μM to 2.5 mM
  Mode of inhibition with respect to NAD+: noncompetitive

B1: Mycobacterium tuberculosis lipoamide dehydrogenase (Lpd), residues 1-464 (enzyme)
chain: T1 sequence (P9WHH9 1-464)
[12]
  binding result: binds
